Test results reported in paper PMC3914932, “Automated NMR Fragment Based Screening Identified a Novel Interface Blocker to the LARG/RhoA Complex” (PLoS ONE, 2014).

Target: T1, RhoA (Homo sapiens, UniProt P61586)
T1 construct: residues 1–193
Assay: […] HSQC chemical shift perturbation titration; also STD and WaterLOGSY fragment screening
Type: binding

T1 sequence (P61586 whole entry, the tested form may be a part): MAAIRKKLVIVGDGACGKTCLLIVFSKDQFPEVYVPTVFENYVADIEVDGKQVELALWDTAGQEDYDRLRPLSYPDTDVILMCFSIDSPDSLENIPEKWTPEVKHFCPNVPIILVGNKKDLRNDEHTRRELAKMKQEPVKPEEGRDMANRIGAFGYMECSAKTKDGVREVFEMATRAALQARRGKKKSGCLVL

Molecule `c1ccc(COC2CNC2)cc1` [R1] has a Kd of 110 µM.
